Where a name gives a salt, the structure may show the parent alone.
Assays:
[1] = Stability under high or low humidity condition; type: physicochemical; settings: below about 50° C.
[2] = Acute toxicity, oral administration to a rat (LD50); settings: in vivo
Procedure: The LD50 value of this compound is in oral administration to a rat is 6000 mg/kg or more.

For `O=C(O)C=Cc1ccc(Cn2ccnc2)cc1` [4-(1-imidazolylmethyl)cinnamic acid hydrochloride monohydrate], the stability [1] was “stable” and the LD50 [2] was ≥ 6000 mg/kg.
